Numbering of substitutions follows the chain as printed. Bridge positions count the residues as written; N and C are the ends. Ends that are not written are not given here.
Experiments:
human GPRC6A isoform 1 = target: T1, human GPRC6A isoform 1 (Homo sapiens, UniProt Q5T6X5); experiment: ERK activation (phospho-ERK/total ERK ELISA) in HEK-293 cells transfected with human GPRC6A isoform 1 (wild-type); assay type: cell-based; details: for ERK phosphorylation by synthesized human Ocn fragments: fragments at 20 nM, HEK-293 with pcDNA3-hGPRC6A, Figure 3B / S5B
T1 construct: expressed in transfected cells; host or cells: HEK-293, pcDNA3-hGPRC6A
T1 sequence (Q5T6X5 19-926): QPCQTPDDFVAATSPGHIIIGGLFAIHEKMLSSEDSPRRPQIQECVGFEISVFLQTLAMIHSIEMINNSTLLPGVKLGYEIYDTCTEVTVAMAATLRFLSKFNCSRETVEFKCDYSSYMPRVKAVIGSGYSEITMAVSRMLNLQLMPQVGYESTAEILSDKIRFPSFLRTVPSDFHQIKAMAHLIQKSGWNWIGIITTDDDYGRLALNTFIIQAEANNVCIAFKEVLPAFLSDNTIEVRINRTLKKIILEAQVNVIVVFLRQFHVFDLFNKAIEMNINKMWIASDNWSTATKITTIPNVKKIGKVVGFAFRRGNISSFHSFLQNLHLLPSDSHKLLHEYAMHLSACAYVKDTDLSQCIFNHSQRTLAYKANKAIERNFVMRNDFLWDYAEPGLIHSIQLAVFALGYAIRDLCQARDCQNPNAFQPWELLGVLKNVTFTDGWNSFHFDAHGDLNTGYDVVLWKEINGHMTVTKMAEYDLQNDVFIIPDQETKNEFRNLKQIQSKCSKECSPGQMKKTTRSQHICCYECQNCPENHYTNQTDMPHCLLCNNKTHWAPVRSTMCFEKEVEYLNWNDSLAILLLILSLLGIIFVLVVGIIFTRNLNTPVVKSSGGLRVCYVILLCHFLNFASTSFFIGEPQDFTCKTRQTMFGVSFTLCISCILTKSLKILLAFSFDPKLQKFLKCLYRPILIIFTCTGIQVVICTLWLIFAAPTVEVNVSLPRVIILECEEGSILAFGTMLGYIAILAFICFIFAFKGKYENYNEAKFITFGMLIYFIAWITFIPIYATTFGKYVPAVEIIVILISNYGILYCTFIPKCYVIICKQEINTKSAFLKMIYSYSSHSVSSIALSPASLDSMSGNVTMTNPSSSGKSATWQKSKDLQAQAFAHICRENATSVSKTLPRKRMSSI
Protocol: All culture reagents were from Invitrogen (Waltham, MA, USA). Human embryonic kidney HEK‐293 cells were obtained from American Type Culture Collection and cultured in DMEM medium supplemented with 10% fetal bovine serum and 1% Penicillin/Streptomycin (P/S). Briefly, HEK‐293 cells transfected with/without human GPRC6A isoforms cDNA plasmids were starved by overnight incubation in serum‐free DMEM/F12 containing 0.1% bovine serum albumin (BSA) and stimulated with various ligands at different doses. […]

H355P hGPRC6A = target: T2, H355P hGPRC6A (Homo sapiens, UniProt Q5T6X5, H355P); experiment: ERK activation in HEK-293 cells transfected with H355P hGPRC6A; assay type: cell-based; details: H355P mutant; for ERK activation by Ocn small fragments: fragment at 20 nM, Figure 6D
T2 construct: expressed in transfected cells; host or cells: HEK-293, pcDNA3
T2 sequence (Q5T6X5 19-926 H355P): T1 sequence (Q5T6X5 19-926) with H337P
Protocol: All culture reagents were from Invitrogen (Waltham, MA, USA). Human embryonic kidney HEK‐293 cells were obtained from American Type Culture Collection and cultured in DMEM medium supplemented with 10% fetal bovine serum and 1% Penicillin/Streptomycin (P/S). Briefly, HEK‐293 cells transfected with/without human GPRC6A isoforms cDNA plasmids were starved by overnight incubation in serum‐free DMEM/F12 containing 0.1% bovine serum albumin (BSA) and stimulated with various ligands at different doses. ERK activation was assessed 20 min after treatment by using ERK1/2 (phospho‐T203/Y204) ELISA Kit (Invitrogen; Waltham, MA, USA) corrected for the amount of total ERK using ERK1/2 (Total) ELISA Kit (Invitrogen; Waltham, MA, USA) to measure ERK levels.
In‐vitro mutagenesis by PCR‐mediated recombination QuikChange II XL Site‐Directed Mutagenesis Kit (Agilent) was performed using the cDNA of human GPRC6A cloned in the vector pcDNA3 (Invitrogen) as a template. The primer sets are as follows. K352E.sen: […]; K352E.antisen: […]; H355P.sen: […]; H355P.antisen: […]; K352E/H355P.sen: […]; and K352E/H355P.antisen: […]. All mutants were confirmed by sequencing.

Row | Substance | ERK phosphorylation by synthesized human Ocn fragments (human GPRC6A isoform 1; 15 min) | ERK activation by Ocn small fragments (H355P hGPRC6A) | ERK phosphorylation, dose response of full-length Ocn (human GPRC6A isoform 1; WT hGPRC6A, Figure 6B) | Ocn-induced ERK activation, dose response (human GPRC6A isoform 1; isoform 1, Ocn 1.73, 8.65, 17.3, 26.0 nM, 1 mM calcium, 15 min, Figure 2B) | ERK phosphorylation, dose response of full-length Ocn, versus wild-type receptor (H355P hGPRC6A; Figure 6B)
1 | REVCELNPDC (disulfide 4-10 (inferred)) [Ocn 20–29, synthesized human Ocn decapeptide fragment located in the middle of the protein] | high activity | no response |  |  | 
2 | RFYGPV [Ocn 44–49, synthesized human Ocn C‐terminal hexapeptide] | high activity | significantly attenuated |  |  | 
3 | osteocalcin (YLYQWLGAPVPYPDPLEPRREVCELNPDCDELADHIGFQEAYRRFYGPV; not fully specified; ends and bridges not checked; UniProt P02818 52-100, looked up) [Ocn 1–49, full human Ocn (49 aa) synthesized by BioMatik; methods also describe decarboxylated Ocn purified from bovine tibial bone, reference compound] |  |  | dose‐dependently stimulated | activated GPRC6A isoform 1 in a dose dependent manner | significantly decreased

Source: paper PMC11467737, “Osteocalcin binds to a GPRC6A Venus fly trap allosteric site to positively modulate GPRC6A signaling” (FASEB BioAdvances, 2024)
